Patent publication US20260184707A1, “PHARMACEUTICAL COMPOUNDS FOR THE TREATMENT OF COMPLEMENT MEDIATED DISORDERS” (ALEXION PHARMACEUTICALS, INC., priority 2022, published 2026)

Target: T1, Human complement C1s enzyme (Homo sapiens, UniProt P09871)
T1 construct: purified from human serum, Complement Technology, Inc; purchased Complement Technology, Inc; host or cells: human serum (plasma-derived native protein)
T1 sequence (P09871 438-688 limits assumed): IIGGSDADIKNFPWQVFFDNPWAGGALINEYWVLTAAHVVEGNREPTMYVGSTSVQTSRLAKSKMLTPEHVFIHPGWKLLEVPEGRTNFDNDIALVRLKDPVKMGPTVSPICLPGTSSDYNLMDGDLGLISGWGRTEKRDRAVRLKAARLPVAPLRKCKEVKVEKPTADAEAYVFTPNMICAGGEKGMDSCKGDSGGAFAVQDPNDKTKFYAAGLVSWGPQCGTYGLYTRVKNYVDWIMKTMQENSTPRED
T1 sequence (P09871 16-437 partner limits assumed): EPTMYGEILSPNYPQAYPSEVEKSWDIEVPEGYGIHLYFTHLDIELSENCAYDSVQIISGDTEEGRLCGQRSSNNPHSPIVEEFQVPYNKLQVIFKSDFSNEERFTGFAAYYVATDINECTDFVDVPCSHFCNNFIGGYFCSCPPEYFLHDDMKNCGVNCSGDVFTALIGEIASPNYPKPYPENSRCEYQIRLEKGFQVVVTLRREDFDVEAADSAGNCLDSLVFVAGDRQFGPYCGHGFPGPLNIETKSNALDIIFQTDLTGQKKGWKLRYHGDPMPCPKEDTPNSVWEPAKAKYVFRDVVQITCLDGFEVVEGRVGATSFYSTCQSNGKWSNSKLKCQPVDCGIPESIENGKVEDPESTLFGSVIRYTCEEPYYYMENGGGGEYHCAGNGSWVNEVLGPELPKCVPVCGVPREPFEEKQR
Experiment: Human C1s enzyme assay
Assay type: biochemical
Settings: human complement C1s enzyme 1.16 nM, substrate Z-L-Lys-SBzl, A405; read-out: IC50 (Stars)
Method in brief: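 Thioesterase activity followed colorimetrically (DTNB, A405, 30-s reads) using 100 μM Z-L-Lys-SBzl substrate. Enzyme, human serum-derived C1s at 1.16 nM final, was incubated with test compound for 5 min, room temperature, pH 7.5 Tris buffer with 1 M NaCl. Rate-versus-concentration data fitted by nonlinear regression for IC50.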

Row | IC50 | SMILES
1 | < 100 nM | C[C@@H](Nc1ncc(-c2nccs2)n(CC(=O)NCc2cc3cnccc3[nH]2)c1=O)c1ccc2oc3ccccc3c2c1 [Compound 431, (R)-N-((1H-pyrrolo[3,2-c]pyridin-2-yl)methyl)-2-(3-((1-(dibenzo[b,d]furan-2-yl)ethyl)-amino)-2-oxo-6-(thiazol-2-yl)-pyrazin-1(2H)-yl)acetamide]
2 | < 100 nM | C[C@@H](Nc1ncc(-c2cscn2)n(CC(=O)NCc2cc3cnccc3[nH]2)c1=O)c1ccc(-c2ccccc2F)cc1 [Compound 432, (R)-N-((1H-pyrrolo[3,2-c]pyridin-2-yl)methyl)-2-(3-((1-(2′-fluoro-[1,1′-biphenyl]-4-yl)ethyl)amino)-2-oxo-6-(thiazol-4-yl)pyrazin-1(2H)-yl)acetamide]
3 | < 100 nM | O=C(Cn1c(-c2ccccc2F)ncc(N[C@H](CO)c2ccc3oc4ccccc4c3c2)c1=O)NCc1cc2cnccc2[nH]1 [Compound 433, (S)—N-((1H-Pyrrolo[3,2-c]pyridine-2-yl)methyl)-2-(5-((1-(dibenzo[b,d]furan-2-yl)-2-hydroxyethyl)amino)-2-(2-fluorophenyl)-6-oxopyrimidin-1(6H)-yl)acetamide]
4 | < 100 nM | Cc1cccc(-c2ncc(N[C@H](C)c3ccc4oc5ccccc5c4c3)c(=O)n2CC(=O)NCc2cc3cnccc3[nH]2)c1F [Compound 434, (R)-N-((1H-pyrrolo[3,2-c]pyridin-2-yl)methyl)-2-(5-((1-(dibenzo[b,d]furan-2-yl)ethyl)amino)-2-(2-fluoro-3-methylphenyl)-6-oxopyr-imidin-1(6H)-yl)acetamide]
5 | < 100 nM | Cc1cccc(-c2ncc(NCCCc3ccccc3)c(=O)n2CC(=O)NCc2cc3cnccc3[nH]2)c1F [Compound 435, N-((1H-pyrrolo[3,2-c]pyridin-2-yl)methyl)-2-(2-(2-fluoro-3-methylphenyl)-6-oxo-5-((3-phenylpropyl)amino)pyrimi-din-1(6H)-yl)acetamide]
6 | < 100 nM | Cc1ccc(-c2ncc(N[C@H](C)c3ccc4oc5ccccc5c4c3)c(=O)n2CC(=O)NCc2cc3cnccc3[nH]2)c(F)c1 [Compound 436, (R)-N-((1H-pyrrolo[3,2-c]pyridin-2-yl)methyl)-2-(5-((1-(dibenzo[b,d]furan-2-yl)ethyl)-amino)-2-(2-fluoro-4-methyl-phenyl)-6-oxopyrimidin-1(6H)-yl)acetamide]
7 | < 100 nM | Cc1ccc(-c2ncc(NCCCc3ccccc3)c(=O)n2CC(=O)NCc2cc3cnccc3[nH]2)c(F)c1 [Compound 437, N-((1H-pyrrolo[3,2-c]pyridin-2-yl)methyl)-2-(2-(2-fluoro-4-methylphenyl)-6-oxo-5-((3-phenylpropyl)amino)pyrimi-din-1(6H)-yl)acetamide]
8 | < 100 nM | Cc1ccc(F)c(-c2ncc(N[C@H](C)c3ccc4oc5ccccc5c4c3)c(=O)n2CC(=O)NCc2cc3cnccc3[nH]2)c1 [Compound 438, (R)-N-((1H-pyrrolo[3,2-c]pyridin-2-yl)methyl)-2-(5-((1-(dibenzo[b,d]furan-2-yl)ethyl)-amino)-2-(2-fluoro-5-methyl-phenyl)-6-oxopyrimidin-1(6H)-yl)acetamide]
9 | < 100 nM | Cc1ccc(F)c(-c2ncc(NCCCc3ccccc3)c(=O)n2CC(=O)NCc2cc3cnccc3[nH]2)c1 [Compound 439, N-((1H-pyrrolo[3,2-c]pyridin-2-yl)methyl)-2-(2-(2-fluoro-5-methylphenyl)-6-oxo-5-((3-phenylpropyl)amino)pyrimi-din-1(6H)-yl)acetamide]
10 | 100 to 1000 nM | C[C@@H](Nc1ncc(N2CCCC2)n(CC(=O)NCc2cc3cnccc3[nH]2)c1=O)c1ccc2oc3ccccc3c2c1 [Compound 440, (R)-N-((1H-pyrrolo[3,2-c]pyridin-2-yl)methyl)-2-(3-((1-(dibenzo[b,d]furan-2-yl)ethyl)-amino)-2-oxo-6-(pyrrolidin-1-yl)pyrazin-1(2H)-yl)acetamide]
11 | < 100 nM | CC(C)c1cnc(N[C@H](C)c2ccc3oc4ccccc4c3c2)c(=O)n1CC(=O)NCc1cc2cnccc2[nH]1 [Compound 442, (R)-N-((1H-pyrrolo[3,2-c]pyridin-2-yl)methyl)-2-(3-((1-(dibenzo[b,d]furan-2-yl)ethyl)-amino)-6-isopropyl-2-oxopyr-azin-1(2H)-yl)acetamide]

The next lines start with the compound.

Row | SMILES | IC50
12 | C[C@@H](Nc1ncc(-c2ccccc2F)n(CC(=O)NCc2cc3cnccc3[nH]2)c1=O)c1ccc(-c2ccccc2F)cc1 [Compound 418, (R)—N-((1H-Pyrrolo[3,2-c]pyridine-2-yl)methyl)-2-(3-((1-(2′-fluoro-[1,1′-biphenyl]-4-yl)ethyl)amino)-6-(2-fluorophenyl)-2-oxopyrazin-1(2H)-yl)acetamide] | < 100 nM
13 | C[C@@H](Nc1ncc(C2CCCC2)n(CC(=O)NCc2cc3cnccc3[nH]2)c1=O)c1ccc2oc3ccccc3c2c1 [Compound 420, (R)-N-((1H-pyrrolo[3,2-c]pyridin-2-yl)methyl)-2-(6-cyclopentyl-3-((1-(dibenzo [b,d]furan-2-yl)ethyl)amino)-2-oxopyrazin-1(2H)-yl)acet-amide] | < 100 nM
14 | C[C@@H](Nc1cnc(N2CCOCC2)n(CC(=O)NCc2cc3cnccc3[nH]2)c1=O)c1ccc(-c2ccccc2F)cc1 [Compound 421, (R)-N-((1H-pyrrolo[3,2-c]pyridin-2-yl)methyl)-2-(5-((1-(2′-fluoro-[1,1′-biphenyl]-4-yl)-ethyl)amino)-2-morpholino-6-oxopyrimidin-1(6H)-yl)acet-amide] | < 100 nM
15 | C[C@@H](Nc1cnc(N2CCCC2)n(CC(=O)NCc2cc3cnccc3[nH]2)c1=O)c1ccc(-c2ccccc2F)cc1 [Compound 422, (R)-N-((1H-pyrrolo[3,2-c]pyridin-2-yl)methyl)-2-(5-((1-(2′-fluoro-[1,1′-biphenyl]-4-yl)ethyl)amino)-6-oxo-2-(pyr-rolidin-1-yl)pyrimidin-1(6H)-yl)acetamide] | < 100 nM
16 | C[C@@H](Nc1ncc(N2CCCCC2)n(CC(=O)NCc2cc3cnccc3[nH]2)c1=O)c1ccc(-c2ccccc2F)cc1 [Compound 423, (R)-N-((1H-pyrrolo[3,2-c]pyridin-2-yl)methyl)-2-(3-((1-(2′-fluoro-[1,1′-biphenyl]-4-yl)ethyl)amino)-2-oxo-6-(piperidin-1-yl)pyrazin-1(2H)-yl)acetamide] | < 100 nM
17 | C[C@@H](Nc1ncc(N2CCCC(O)C2)n(CC(=O)NCc2cc3cnccc3[nH]2)c1=O)c1ccc2oc3ccccc3c2c1 (stereo partly drawn) [Compound 424, N-((1H-pyrrolo[3,2-c]pyridin-2-yl)methyl)-2-(3-(((R)-1-(dibenzo[b,d]furan-2-yl)ethyl)-amino)-6-(3-hydroxypiperidin-1-yl)-2-oxopyrazin-1(2H)-yl)-acetamide] | < 100 nM
18 | C[C@@H](Nc1cnc(-c2ccccc2)n(CC(=O)NCc2cc(Cl)ccc2-n2cnnn2)c1=O)c1ccc2oc3ccccc3c2c1 [Compound 425, (R)-N-(5-chloro-2-(1H-tetra-zol-1-yl)benzyl)-2-(5-((1-(dibenzo[b,d]furan-2-yl)ethyl)-amino)-6-oxo-2-phenylpyrimi-din-1(6H)-yl)acetamide] | > 1000 nM
19 | C[C@@H](Nc1ncc(C2=CCOCC2)n(CC(=O)NCc2cc3cnccc3[nH]2)c1=O)c1ccc2oc3ccccc3c2c1 [Compound 426, (R)—N-((1H-Pyrrolo[3,2-c]pyridine-2-yl)methyl)-2-(3-((1-(dibenzo[b,d]furan-2-yl)ethyl)amino)-6-(3,6-dihydro-2H-pyran-4-yl)-2-oxopyrazin-1(2H)-yl)acetamide] | < 100 nM
20 | C[C@@H](Nc1ncc(C2=CCCCC2)n(CC(=O)NCc2cc3cnccc3[nH]2)c1=O)c1ccc2oc3ccccc3c2c1 [Compound 427, (R)-N-((1H-pyrrolo[3,2-c]pyridin-2-yl)methyl)-2-(6-(cyclohex-1-en-1-yl)-3-((1-(dibenzo[b,d]furan-2-yl)ethyl)-amino)-2-oxopyrazin-1(2H)-yl)acetamide] | < 100 nM
21 | C[C@@H](Nc1ncc(N2CCN(C)CC2)n(CC(=O)NCc2cc3cnccc3[nH]2)c1=O)c1ccc2oc3ccccc3c2c1 [Compound 428, (R)-N-((1H-pyrrolo[3,2-c]pyridin-2-yl)methyl)-2-(3-((1-(dibenzo[b,d]furan-2-yl)ethyl)-amino)-6-(4-methylpiperazin-1-yl)-2-oxopyrazin-1(2H)-yl)-acetamide] | < 100 nM
22 | C[C@@H](Nc1ncc(-c2cscn2)n(CC(=O)NCc2cc3cnccc3[nH]2)c1=O)c1ccc2oc3ccccc3c2c1 [Compound 429, (R)-N-((1H-pyrrolo[3,2-c]pyridin-2-yl)methyl)-2-(3-((1-(dibenzo[b,d]furan-2-yl)ethyl)-amino)-2-oxo-6-(thiazol-4-yl)-pyrazin-1(2H)-yl)acetamide] | < 100 nM
23 | C[C@@H](Nc1ncc(-c2ccccn2)n(CC(=O)NCc2cc3cnccc3[nH]2)c1=O)c1ccc2oc3ccccc3c2c1 [Compound 430, (R)-N-((1H-pyrrolo[3,2-c]pyridin-2-yl)methyl)-2-(3-((1-(dibenzo[b,d]furan-2-yl)ethyl)-amino)-2-oxo-6-(pyridin-2-yl)-pyrazin-1(2H)-yl)acetamide] | < 100 nM
